Data reported in patent US7488730B2, “N-(1,2,3,4-tetrahydronaphthalen-1-yl)-4-phenyl-1-piperazinealkylamide derivatives, and therapeutic use thereof as 5-HT7 receptor ligands” (Universita Degli Studi Di Bari, priority 2005, dated 2009).
“Also recorded” adds a separate entry of the source. Where a name gives a salt, the structure may show the parent alone.

Tests used:
[1] = biological target: T1, rat cloned 5-HT7 receptor (Rattus norvegicus, UniProt P32305); experiment: Radioligand binding assay ([3H]-LSD) at rat cloned 5-HT7Rs; conditions: for Ki: [3H]-LSD, rat recombinant 5-HT7R expressed in HEK-293 cells
T1 construct: purchased PerkinElmer-NEN; host or cells: HEK-293
Method: Rat recombinant serotonin 5-HT7R expressed in HEK-293 cells were purchased from PerkinElmer-NEN (Betsville, Md., USA).
Radioligand Binding Assay at Rat Cloned 5-HT7Rs. Binding of [^3H]-LSD at rat cloned 5-HT7 receptor was performed according to a known method. In 1 mL of incubation buffer (50 mM Tris, 10 mM MgCl2 and 0.5 mM EDTA, pH 7.4) were suspended 30 μg of membranes, 2.5 nM [^3H]-LSD, the drugs or reference compound (six to nine concentrations). The samples were incubated for 60 min at 37° C. The incubation was stopped by rapid filtration on GF/A glass fiber filters (pre-soaked in 0.5% polyethylenimine for 30 min). The filters were washed with 3 ? 3 mL of ice-cold buffer (50 mM Tris, pH 7.4). Nonspecific binding was determined in the presence of 10 μM 5-CT. Approximately 90% of specific binding was determined under these conditions.

[2] = biological target: T2, 5-HT1A receptors (Rattus norvegicus, UniProt P19327); conditions: for Ki: read-out: Ki, nM 5-HT1A, [3H]-8-OH-DPAT, rat hippocampal membranes
T2 sequence (P19327 1-422): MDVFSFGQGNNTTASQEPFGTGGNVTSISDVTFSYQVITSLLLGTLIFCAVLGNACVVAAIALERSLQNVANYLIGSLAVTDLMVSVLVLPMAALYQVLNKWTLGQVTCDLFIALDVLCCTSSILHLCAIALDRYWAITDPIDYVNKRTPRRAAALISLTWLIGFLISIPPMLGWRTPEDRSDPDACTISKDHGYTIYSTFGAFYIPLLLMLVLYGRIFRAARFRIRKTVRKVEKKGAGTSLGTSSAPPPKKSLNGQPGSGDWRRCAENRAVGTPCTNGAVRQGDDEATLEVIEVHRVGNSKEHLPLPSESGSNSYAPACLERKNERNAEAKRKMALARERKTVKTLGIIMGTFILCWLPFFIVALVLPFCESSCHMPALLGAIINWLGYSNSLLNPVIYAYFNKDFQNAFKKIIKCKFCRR
Method: Radioligand Binding Assay at Rat Hippocampal Membranes 5-HT1A Receptors. Binding experiments were performed according to a known method. Rats were killed by decapitation, the brain was quickly removed, and the hippocampus was dissected. […] The homogenate was centrifuged at 48000 g for 15 min at 4° C. The supernatant was discarded, and the pellet was resuspended in 25 mL of buffer, then preincubated for 10 min at 37° C. The homogenate was centrifuged at 48000 g for 15 min at 4° C. The supernatant was discarded, and the final pellet was stored at −80° C. until used. […] For competitive inhibition experiments various concentrations of drugs studied were incubated. […] Samples were incubated at 37° C. for 20 min and then filtered on Whatman GF/B glass microfiber filters.
Statistical Analysis. […] The value for the inhibition constant, Ki, was calculated by using the Cheng-Prusoff equation.

[3] = biological target: 5-HT2A receptors (Rattus norvegicus, UniProt P14842); experiment: Radioligand binding assay ([3H]-ketanserin) at rat cortex membranes 5-HT2A receptors; conditions: read-out: Ki, nM 5-HT2A; [3H]-ketanserin, rat cortex membranes
Method: Radioligand Binding Assay at Rat Cortex Membranes 5-HT2A Receptors. […] Rats were killed by decapitation, the brain was quickly removed, and the cortex was dissected. […] The homogenate was centrifuged at 2000 g for 10 min at 4° C. The supernatant was saved, and the pellet was resuspended in 25 mL of buffer. The surnatantes were collected and diluted 1:10 w/w with 10 mM Tris pH 7.4. The homogenate was centrifugated at 35000 g for 15 min at 4° C. The supernatant was discarded, and the final pellet was stored at −80° C. until used. […] For competitive inhibition experiments various concentrations of drugs studied were incubated. […] Samples were incubated at 37° C. for 15 min and then filtered on Whatman GF/B glass microfiber filters.
Statistical Analysis. […] PRISM® program. The value for the inhibition constant, Ki, was calculated by using the Cheng-Prusoff equation.

[4] = biological target: 5-HT7 receptor (Cavia porcellus, UniProt P50407); experiment: Isolated guinea-pig ileum assay: relaxation of substance P-induced contraction; conditions: for 5-HT7 intrinsic activity (in words): isolated guinea-pig ileum; for Emax: read-out: Maximal Effect %; for Schild plot: vs SB-269970, p value in parentheses; for PA2 (vs SB-269970): in the presence of antagonist SB-269970 (0.1 μM-3 μM)
Sequence of 5-HT7 receptor (P50407 whole entry): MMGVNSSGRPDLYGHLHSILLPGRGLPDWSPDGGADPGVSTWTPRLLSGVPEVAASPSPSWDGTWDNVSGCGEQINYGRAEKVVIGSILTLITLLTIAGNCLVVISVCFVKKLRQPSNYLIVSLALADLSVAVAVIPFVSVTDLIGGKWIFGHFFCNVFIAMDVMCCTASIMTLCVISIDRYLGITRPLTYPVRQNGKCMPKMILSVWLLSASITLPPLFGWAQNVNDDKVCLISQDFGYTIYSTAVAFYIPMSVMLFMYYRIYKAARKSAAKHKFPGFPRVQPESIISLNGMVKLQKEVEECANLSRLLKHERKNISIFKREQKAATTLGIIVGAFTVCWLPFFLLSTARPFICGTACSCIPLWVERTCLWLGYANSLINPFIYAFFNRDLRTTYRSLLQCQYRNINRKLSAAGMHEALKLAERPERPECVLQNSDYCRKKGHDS
Method: Isolated Guinea-Pig Ileum Assay. Guinea-pigs were anesthetized and then decapitated and the proximal ileum removed. […] Changes in tension of the tissue were recorded by Fort 10 Original WPI isometric transducer (2Biological Instruments, Italy) connected to a PowerLab/400 workstation. […] Tested compounds were added 3 min before substance P addition.
The isolated guinea pig ileum was equilibrated for 75 min with antagonist before constructing concentration-response curves of tested compounds.
Tissue responses were recorded as gram changes in isometric tension and expressed as percentage of reduction in the height of the contraction.
Agonist potencies, expressed as EC50, were obtained from non-linear iterative curve fitting by [sequence] PRISM®.

Sequence of 5-HT2A receptors (P14842 whole entry): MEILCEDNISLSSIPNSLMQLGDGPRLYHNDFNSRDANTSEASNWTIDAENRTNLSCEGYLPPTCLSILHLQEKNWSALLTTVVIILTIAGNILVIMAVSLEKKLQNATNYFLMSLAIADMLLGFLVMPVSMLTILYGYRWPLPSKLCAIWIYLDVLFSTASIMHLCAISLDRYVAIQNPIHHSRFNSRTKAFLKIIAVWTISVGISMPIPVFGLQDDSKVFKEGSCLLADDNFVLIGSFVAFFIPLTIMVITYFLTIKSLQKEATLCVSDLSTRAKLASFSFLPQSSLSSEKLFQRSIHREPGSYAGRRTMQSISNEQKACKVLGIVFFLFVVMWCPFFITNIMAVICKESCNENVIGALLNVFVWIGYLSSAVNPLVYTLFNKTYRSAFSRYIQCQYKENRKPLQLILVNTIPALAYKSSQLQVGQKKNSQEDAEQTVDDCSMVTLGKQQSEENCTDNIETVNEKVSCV
T1 sequence (P32305 whole entry): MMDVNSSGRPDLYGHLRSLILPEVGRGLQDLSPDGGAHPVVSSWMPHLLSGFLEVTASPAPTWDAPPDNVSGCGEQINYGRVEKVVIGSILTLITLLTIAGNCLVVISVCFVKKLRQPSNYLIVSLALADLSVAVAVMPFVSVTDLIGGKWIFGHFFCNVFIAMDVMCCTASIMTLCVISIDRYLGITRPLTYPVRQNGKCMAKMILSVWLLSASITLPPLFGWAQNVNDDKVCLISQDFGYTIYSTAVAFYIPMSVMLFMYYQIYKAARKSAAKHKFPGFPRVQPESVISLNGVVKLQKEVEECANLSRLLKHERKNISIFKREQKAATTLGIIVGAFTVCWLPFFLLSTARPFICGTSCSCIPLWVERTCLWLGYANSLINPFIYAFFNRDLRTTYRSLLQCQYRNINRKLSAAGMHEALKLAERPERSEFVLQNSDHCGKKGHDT

Ki [1] [nM]	Ki [2] [nM]	5-HT7R affinity (in words) [1]	SMILES	Ki [3] [nM]	also measured
–	–	–	N#Cc1ccccc1N1CCN(CCCCCC(=O)NC2CCCc3ccccc32)CC1 (stereo not drawn) (as salt: HCl) (hydrate or solvate) [Compound 33]	–	melting point: 175 to 178 °C
269 ± 18	–	moderate affinities	COc1ccccc1N1CCN(CCC(=O)NC2CCCc3c(OC)cccc32)CC1 (stereo not drawn) [Compound 6]	–	5-HT1A receptor affinity (in words) [2]: moderate affinities
35 ± 3.2	254 ± 65	moderate affinities	COc1ccccc1N1CCN(CCCC(=O)NC2CCCc3c(OC)cccc32)CC1 (stereo not drawn) [Compound 7, N-(5-methoxy-1,2,3,4-tetrahydronaphthalen-1-yl)-4-(2-methoxyphenyl)-1-piperazinebutanamide]	–	5-HT1A receptor affinity (in words) [2]: moderate affinities
92 ± 12	245 ± 20	–	COc1ccccc1N1CCN(CCCC(=O)NC2CCCc3ccccc32)CC1 (stereo not drawn) [Compound 26, 4-(2-Methoxyphenyl)-N-(1,2,3,4-tetrahydronaphthalen-1-yl)-1-piperazinebutanamide]	–	–
64 ± 12	72 ± 18	–	COc1ccccc1N1CCN(CCCCC(=O)NC2CCCc3cccc(OC)c32)CC1 (stereo not drawn) [Compound 24]	–	–
43.1 ± 4.8	23.2 ± 2.3	–	COc1ccc2c(c1)CCCC2NC(=O)CCCCN1CCN(c2ccccc2OC)CC1 (stereo not drawn) [Compound 18]	–	–
186 ± 40	257 ± 25	–	COc1ccc2c(c1)CCCC2NC(=O)CCCN1CCN(c2ccccc2OC)CC1 (stereo not drawn) [Compound 17]	–	–
6.05 ± 0.25	9 ± 0.7	–	COc1ccccc1N1CCN(CCCCC(=O)NC2CCCc3ccccc32)CC1 (stereo not drawn) [Compound 27, 4-(2-Methoxyphenyl)-N-(1,2,3,4-tetrahydronaphthalen-1-yl)-1-piperazinepentanamide]	–	–
154 ± 35	441 ± 20	–	COc1ccccc1N1CCN(CCCC(=O)NC2CCCc3cccc(OC)c32)CC1 (stereo not drawn) [Compound 23, N-(8-Methoxy-1,2,3,4-tetrahydronaphthalen-1-yl)4-(2-methoxyphenyl)-1-piperazinebutanamide]	–	–
2100 ± 150	–	nearly devoid of 5-HT7R affinity	COc1ccc(N2CCN(CCCCCC(=O)NC3CCCc4ccccc43)CC2)cc1 (stereo not drawn) [Compound 38]	–	–
41 ± 11	39 ± 6.5	–	COc1ccc2c(c1)C(NC(=O)CCCCCN1CCN(c3ccccc3OC)CC1)CCC2 (stereo not drawn) [Compound 22]	–	–
20 ± 2.5	24.5 ± 1.8	–	COc1ccccc1N1CCN(CCCCCC(=O)NC2CCCc3c(OC)cccc32)CC1 (stereo not drawn) [Compound 16]	–	–
31.4 ± 3.5	30 ± 2.6	–	COc1ccccc1N1CCN(CCCCCC(=O)NC2CCCc3cccc(OC)c32)CC1 (stereo not drawn) [Compound 25]	–	–
2640 ± 130	–	nearly devoid of 5-HT7R affinity	CC(=O)c1ccc(N2CCN(CCCCCC(=O)NC3CCCc4ccccc43)CC2)cc1 (stereo not drawn) [Compound 42]	–	–
6.64 ± 0.6	8.6 ± 0.35	high affinity	COc1ccccc1N1CCN(CCCCCC(=O)NC2CCCc3ccccc32)CC1 (stereo not drawn) [Compound 28, 4-(2-Methoxyphenyl)-N-(1,2,3,4-tetrahydronaphthalen-1-yl)-1-piperazinehexanamide]	–	EC50 [4]: 6320 ± 200 nM; PA2 (vs SB-269970) [4]: 8.02 ± 1.40; 5-HT7 intrinsic activity (in words) [4]: Full agonists; Emax [4]: 91%; Schild plot [4]: 1.0 (p < 0.0001)
1400 ± 120	–	nearly devoid of 5-HT7R affinity	N#Cc1ccc(N2CCN(CCCCCC(=O)NC3CCCc4ccccc43)CC2)cc1 (stereo not drawn) [Compound 40]	–	–
38.4 ± 4.6	78.9 ± 6.3	–	COc1ccc2c(c1)C(NC(=O)CCCCN1CCN(c3ccccc3OC)CC1)CCC2 (stereo not drawn) [Compound 21]	–	–
15.2 ± 3.2	279 ± 44	high affinity	Cc1ccccc1N1CCN(CCCCCC(=O)NC2CCCc3ccccc32)CC1 (stereo not drawn) [Compound 49, 4-(2-Methylphenyl)-N-(1,2,3,4-tetrahydronaphthalen-1-yl)-1-piperazinehexanamide]	262 ± 24	EC50 [4]: 1820 ± 720 nM; PA2 (vs SB-269970) [4]: 7.80 ± 0.40; 5-HT7 intrinsic activity (in words) [4]: Full agonists; Emax [4]: 98%; Schild plot [4]: 0.9 (p < 0.0001)
28.2 ± 4.2	54.4 ± 6.5	–	COc1ccccc1N1CCN(CCCCC(=O)NC2CCCc3c(OC)cccc32)CC1 (stereo not drawn) [Compound 15]	–	–
129 ± 5	160 ± 12	–	COc1ccc2c(c1)C(NC(=O)CCCN1CCN(c3ccccc3OC)CC1)CCC2 (stereo not drawn) [Compound 20]	–	–
30 ± 3.15	55 ± 8	–	COc1ccc2c(c1)CCCC2NC(=O)CCCCCN1CCN(c2ccccc2OC)CC1 (stereo not drawn) [Compound 19]	–	–

SMILES	Ki [1] [nM]	Ki [2] [nM]	5-HT7R affinity (in words) [1]	Ki [3] [nM]	also measured
O=C(CCCCCN1CCN(c2ccccc2Cl)CC1)NC1CCCc2ccccc21 (stereo not drawn) [Compound 47]	40.1 ± 6.7	96 ± 8	–	301 ± 12	–
N#Cc1cccc(N2CCN(CCCCCC(=O)NC3CCCc4ccccc43)CC2)c1 (stereo not drawn) [Compound 39]	97.8 ± 5.6	291 ± 15	–	909 ± 85	–
O=C(CCCCCN1CCN(c2ccccc2O)CC1)NC1CCCc2ccccc21 (stereo not drawn) [Compound 46, 4-(2-Hydroxyphenyl)-N-(1,2,3,4-tetrahydronaphthalen-1-yl)-1-piperazinehexanamide]	11.4 ± 2.3	24 ± 6.3	high affinity	3390 ± 225	5-HT7 intrinsic activity (in words) [4]: antagonist; Emax [4]: 0%; Schild plot [4]: 1.6 (p < 0.005)
O=C(CCCCCN1CCN(c2ccccc2)CC1)NC1CCCc2ccccc21 (stereo not drawn) [Compound 50]	65.6 ± 4.7	128 ± 22	–	77.8 ± 5.7	–
COc1cccc(N2CCN(CCCCCC(=O)NC3CCCc4ccccc43)CC2)c1 (stereo not drawn) [Compound 37]	119 ± 20	105 ± 12	–	142 ± 20	–
CC(=O)c1cccc(N2CCN(CCCCCC(=O)NC3CCCc4ccccc43)CC2)c1 (stereo not drawn) [Compound 41]	496 ± 24	676 ± 32	–	1130 ± 200	–
O=C(CCCCCN1CCN(c2ccccc2[N+](=O)[O-])CC1)NC1CCCc2ccccc21 (stereo not drawn) [Compound 48]	63.3 ± 7.5	183 ± 15	–	282 ± 35	–
COc1ccc(OC)c(N2CCN(CCCCCC(=O)NC3CCCc4ccccc43)CC2)c1 (stereo not drawn) [Compound 36]	70.3 ± 5.2	911 ± 23	–	259 ± 20	–
COc1cc(Cl)ccc1N1CCN(CCCCCC(=O)NC2CCCc3ccccc32)CC1 (stereo not drawn) [Compound 35]	122 ± 14	332 ± 27	–	7170 ± 150	–
CC(=O)c1ccccc1N1CCN(CCCCCC(=O)NC2CCCc3ccccc32)CC1 (stereo not drawn) [Compound 34, 4-(2-Acetylphenyl)-N-(1,2,3,4-tetrahydronaphthalen-1-yl)-1-piperazinehexanamide]	4.14 ± 0.8	3.8 ± 0.1	reasonably good 5-HT7R affinity; also recorded: high affinity	12200 ± 350	EC50 [4]: 2460 ± 700 nM; PA2 (vs SB-269970) [4]: 7.60 ± 0.49; 5-HT7 intrinsic activity (in words) [4]: partial agonist; Emax [4]: 79%; Schild plot [4]: 1.3 (p < 0.0001)
NCCc1c[nH]c2ccc(C(N)=O)cc12 [5-CT, reference compound]	0.51 ± 0.01	–	–	–	–
N#Cc1ccccc1N1CCN(CCCCCC(=O)NC2CCCc3ccccc32)CC1 (stereo not drawn) [Compound 33]	48.7 ± 2.5	16.6 ± 1.4	reasonably good 5-HT7R affinity	700 ± 25	–
